Key:
human dendritic cells = assay: Transfection of human dendritic cells with pEGFP-N1, count of fluorescent positive cells; format: cell-based
KLN 205 cells [1] = assay: Transfection of KLN 205 cells, luminescence and X-gal; format: cell-based, mouse; conditions: for % expressing cells / average light units: 120 µM chloroquine, 2 µg DNA/well; for average light units: charge ratio +2
[2] = Photon correlation spectroscopy (PCS) particle size of K6CL22-DNA complexes; format: physicochemical; conditions: 150mM NaCl, one hour at room temperature, DNA 40 µg/ml
Method: Complexes between K6CL22 and DNA were formed in the following way in a laminar flow hood: A stock solution of K6CL22 (typically 8-12mg/ml) was stored in water at -20°C. This was thawed and diluted to 4-400µg/ml in either 10mM HEPES pH7.4 (Hepes) or 10mM HEPES/150mM NaCl pH 7.4 (HBS). (It should be noted that these non-reducing conditions favor the formation of peptide dimers via disulfide bonding between peptides of cysteine residues in the peptide). A stock solution of pCMVβ plasmid DNA (typically 2-4mg/ml in either water or TE buffer) was diluted to 40 µg/ml in Hepes or HBS. Peptide (typically 0.4-1ml) was added to an equal volume of diluted DNA. Different target ratios of Peptide:DNA were achieved by varying the concentration of added peptide. Samples were immediately mixed by gently sucking up and down in a pipette tip and left to incubate at room temperature for a minimum of one hour or if required overnight at 4°C.
In Fig. 1, peptide and DNA were mixed as described above and incubated over night at 4°C. The final DNA concentration was 40µg/ml. […]
For PCS analysis the buffers used in the preparation of samples were filtered through 20nm filters. […] Samples were allowed to equilibrate to 25°C prior to measuring, and an average Zav was determined from a minimum of three measurements. […] Zav and intensity and volume distributions were determined using Malvern PC S software. […]

HepG2 cells = assay: Transfection of HepG2 cells in the presence of serum; format: cell-based; conditions: 10% FCS, optimum charge ratio for each peptide, pCMVβ
Method: These transfection complexes were then tested for their comparative ability to transfect HepG2 cells in the presence of 10% FCS (Figure 32).

Cos7 cells = assay: Transfection of Cos cells with pCMVβ, Galacto-Light β-galactosidase assay; format: cell-based, monkey; conditions: chloroquine, 5 hours, triplicate
Method: The DNA and complex solutions were made as follows: • DNA solution: 100 µg/ml pCMVβ, 25 mM phosphate pH 7.4, 0.6 M NaCl. Complex solution: 100 µg/ml pCMVβ, 25 mM phosphate pH 7.4, 0.6 M NaCl, 200 µg/ml K6CL22. These solutions were incubated at room temperature for 1 hour and then 4°C overnight. Cos cells were seeded at 1×10^5 cells per well in 6 well plates (in DMEM, 10% Fetal calf serum (FCS)) 24 hours before incubation with complex or DNA.
The DNA and complex solutions were diluted into PEG diluent (10% PEG 8000, 25 mM phosphate pH 7.4, 37.5 mM NaCl) to a final DNA concentration of 20 µg/ml. Just prior to transfection the Cos cells were washed with PBS and 875 µl RATQ medium (RAT medium with 137.14 µM chloroquine) was added per well. 125 µl of diluted complex or DNA solution was then added per well and the cells were incubated at 37°C for 5 hours. […] 100 µl of Reaction buffer is added to each tube, the samples are incubated at room temperature for 60 mins and then analyzed using Light Emission Accelerator and a Barthoid lumat LB 9501 luminometer. The protein concentration of the cleared cell lysate was measured using the Bio-Rad DC protein assay kit (Bio-Rad). The results are then expressed as relative light units per mg of protein (Figure 7). […]

KLN 205 cells [3] = assay: Uptake of YOYO-1 labelled DNA complexes by KLN 205 cells (FACScan); format: cell-based, mouse
Method: KLN 205 cells were plated at a density of 1.5×10^5 cells per well in 6 well plates one day prior to the addition of DNA. Plasmid DNA (pCMVgal) was labeled with the fluorescent dye: YOYO-1 (Molecular Probes, Eugene, OR) at a ratio of 1 dye molecule per 100 bp (i.e. 1.5 µl of a 10 µM YOYO-1 solution per µg of DNA). The DNA was diluted to 40 µg/ml with 10 mM HEPES, pH 7.3. […] The transfection complex solution was left for 1 hour at room temperature before it was applied to the cells in EMEM/120 µM chloroquine with or without FCS at a DNA concentration of 2 µg/well (i.e. 100 µl of complex added to 900 µl medium for one well). After 4 hours of incubation at 37°C the cells were washed twice with PBS and harvested with Trypsin/EDTA. The cell associated fluorescence was analyzed using a FACScan (Becton Dickinson).

CC[C@H](C)[C@H](NC(=O)[C@H](CC(N)=O)NC(=O)[C@H](CS)NC(=O)[C@H](CCSC)NC(=O)[C@H](CCCNC(=N)N)NC(=O)[C@H](CCC(=O)O)NC(=O)[C@H](Cc1ccc(O)cc1)NC(=O)[C@H](C)NC(=O)[C@H](CO)NC(=O)[C@H](CCCNC(=N)N)NC(=O)[C@@H](NC(=O)[C@H](CCCCN)NC(=O)[C@H](CCCNC(=N)N)NC(=O)CNC(=O)[C@H](CC(N)=O)NC(=O)[C@H](CCC(=O)O)NC(=O)CNC(=O)[C@H](CCCNC(=N)N)NC(=O)[C@H](Cc1c[nH]c2ccccc12)NC(=O)[C@H](Cc1ccccc1)NC(=O)CNC(=O)[C@H](CC(C)C)NC(=O)[C@H](Cc1ccccc1)NC(=O)CNC(=O)CNC(=O)[C@H](CCCCN)NC(=O)[C@H](CCCCN)NC(=O)[C@H](CCCCN)NC(=O)[C@H](CCCCN)NC(=O)[C@H](CCCCN)NC(=O)[C@H](CCCCN)NC(=O)[C@H](CCCCN)NC(=O)[C@H](CCCCN)NC(=O)[C@H](CCCCN)NC(=O)[C@H](CCCCN)NC(=O)[C@H](CCCCN)NC(=O)[C@@H](N)CCCCN)[C@@H](C)O)C(=O)N[C@@H](CC(C)C)C(=O)N[C@@H](CCCCN)C(=O)NCC(=O)N[C@@H](CCCCN)C(=O)O [CL26]
transfection efficiency, CL26-complexed versus CL22-complexed DNA (human dendritic cells; Figure 35, peptide/DNA ratio between 1 and 1.8): higher efficiency
transfection efficiency, CL26-complexed versus CL22-complexed DNA (human dendritic cells; Figures 33 and 34): higher efficiency

CC[C@H](C)[C@H](NC(=O)[C@H](CC(N)=O)NC(=O)[C@H](CS)NC(=O)[C@H](CCSC)NC(=O)[C@H](CCCNC(=N)N)NC(=O)[C@H](CCC(=O)O)NC(=O)[C@H](Cc1ccc(O)cc1)NC(=O)[C@H](C)NC(=O)[C@H](CO)NC(=O)[C@H](CCCNC(=N)N)NC(=O)[C@@H](NC(=O)[C@H](CCCCN)NC(=O)[C@H](CCCNC(=N)N)NC(=O)CNC(=O)[C@H](CC(N)=O)NC(=O)[C@H](CCC(=O)O)NC(=O)CNC(=O)[C@H](CCCNC(=N)N)NC(=O)[C@H](Cc1c[nH]c2ccccc12)NC(=O)[C@H](Cc1ccccc1)NC(=O)CNC(=O)[C@H](CC(C)C)NC(=O)[C@H](Cc1ccccc1)NC(=O)CNC(=O)CNC(=O)[C@H](CCCCN)NC(=O)[C@H](CCCCN)NC(=O)[C@H](CCCCN)NC(=O)[C@H](CCCCN)NC(=O)[C@H](CCCCN)NC(=O)[C@@H](N)CCCCN)[C@@H](C)O)C(=O)N[C@@H](CC(C)C)C(=O)N[C@@H](CCCCN)C(=O)NCC(=O)N[C@@H](CCCCN)C(=O)O [K6CL22 monomer]
transfection of dendritic cells, monomer versus dimer (human dendritic cells; peptide/DNA ratio between 2.0 and 4.0): transfects dendritic cells poorly compared with CL22 dimer
effect of FCS on transfection efficiency (human dendritic cells; presence of FCS compared to absence of FCS): greatly reduced

CC[C@H](C)[C@H](NC(=O)[C@H](CC(N)=O)NC(=O)[C@H](CS)NC(=O)[C@H](CCSC)NC(=O)[C@H](CCCNC(=N)N)NC(=O)[C@H](CCC(=O)O)NC(=O)[C@H](Cc1ccc(O)cc1)NC(=O)[C@H](C)NC(=O)[C@H](CO)NC(=O)[C@H](CCCNC(=N)N)NC(=O)[C@@H](NC(=O)[C@H](CCCCN)NC(=O)[C@H](CCCNC(=N)N)NC(=O)CNC(=O)[C@H](CC(N)=O)NC(=O)[C@H](CCC(=O)O)NC(=O)CNC(=O)[C@H](CCCNC(=N)N)NC(=O)[C@H](Cc1c[nH]c2ccccc12)NC(=O)[C@H](Cc1ccccc1)NC(=O)CNC(=O)[C@H](CC(C)C)NC(=O)[C@H](Cc1ccccc1)NC(=O)CNC(=O)CNC(=O)[C@H](CCCCN)NC(=O)[C@H](CCCCN)NC(=O)[C@H](CCCCN)NC(=O)[C@H](CCCCN)NC(=O)[C@H](CCCCN)NC(=O)[C@@H](N)CCCCN)[C@@H](C)O)C(=O)N[C@@H](CC(C)C)C(=O)N[C@@H](CCCCN)C(=O)NCC(=O)N[C@@H](CCCCN)C(=O)O [K6CL22]
gene expression compared to NBC32 complexed plasmid DNA (KLN 205 cells [1]): higher
% expressing cells (KLN 205 cells [1]; absence of FCS): 35%
average light units (KLN 205 cells [1]; absence of FCS): 3000 x 10^6 RLU
% expressing cells (KLN 205 cells [1]; presence of FCS): 5%
average light units (KLN 205 cells [1]; presence of FCS): 77 x 10^6 RLU
size of large particles/aggregates of complex [2]: approx. 1000 nm
transfection compared with polylysine peptides or a histone based peptide (HepG2 cells): greater
transfection of Cos cells (β-galactosidase, relative light units per mg of protein) (Cos7 cells): very efficient transfection
uptake of complexed DNA compared to DNA complexed with a polylysine peptide (KLN 205 cells [3]; charge ratio +2, 120 µM chloroquine, 4 hours): taken up as efficiently
uptake of complexed DNA compared to a polylysine peptide, presence of FCS (KLN 205 cells [3]; in the presence of FCS): less than that of a polylysine peptide
transfection efficiency, CL22-complexed versus CL26-complexed DNA (human dendritic cells; Figure 35, peptide/DNA ratio between 2 and 2.6): greater
